Measurements published in US9707234B2, “Spirocyclic hetercycle compounds useful as HIV integrase inhibitors” (MERCK SHARP & DOHME CORP., priority 2013, dated 2017).
Where two headings read alike, the source gives them in different places.

System: HIV-1 (H9IIIB or NL4-3 virus) replication in MT4-GFP cells
Experiment: microbe, parasite or virus in culture
Type: cell-based
Details: inhibition of reproductive ratio R0, 48-72 h post-infection
[1] = Human immunodeficiency virus 1, NL43, MT4-GFP cells infected with HIV-1, serum free conditions (0% NHS), read-out: ViKinG IP (nM) with 0% NHS
[2] = MT4-GFP cells infected with HIV-1, 100% normal human serum, read-out: ViKinG IP (nM) with 100% NHS
[3] = MT4-GFP cells infected with HIV-1, serum free conditions (0% NHS), read-out: ViKinG IP (nM) with 0% NHS
[4] = Human immunodeficiency virus 1, NL43, MT4-GFP cells infected with HIV-1, 100% normal human serum, read-out: ViKinG IP (nM) with 100% NHS
[5] = Human immunodeficiency virus 1, NL43, MT4-GFP cells infected with HIV-1, 10% normal human serum, read-out: ViKinG IP (nM) with 10% NHS
[6] = MT4-GFP cells infected with HIV-1, 10% normal human serum, read-out: ViKinG IP (nM) with 10% NHS

SMILES: CN1C(=O)c2c(O)c(=O)c(C(=O)NCc3ccc(F)c(Cl)c3)cn2N(C)C12CCOC2 (single isomer, unassigned) [Compound 107]
- IC50 [1]: 1.2 nM
- IC50 [2]: 790 nM

SMILES: CN1C(=O)c2c(O)c(=O)c(C(=O)NCc3ccc(F)c(Cl)c3)cn2N(C)C12CCOC2 (single isomer, unassigned) [Compound 108]
- IC50 [2]: 218 nM
- IC50 [3]: 1.1 nM

SMILES: CN1C(=O)c2c(O)c(=O)c(C(=O)NCc3cccc(Cl)c3F)cn2N(C)C12CCOC2 (single isomer, unassigned) [Compound 109]
- IC50 [4]: 229 nM
- IC50 [1]: 0.6 nM

SMILES: CN1C(=O)c2c(O)c(=O)c(C(=O)NCc3cccc(Cl)c3F)cn2N(C)C12CCOC2 (single isomer, unassigned) [Compound 110]
- IC50 [2]: 121 nM

SMILES: CN1C(=O)c2c(O)c(=O)c(C(=O)NCc3ccccc3F)cn2N(C)C12CCOC2 (single isomer, unassigned) [Compound 111]
- IC50 [4]: 158 nM
- IC50 [1]: 1.6 nM

SMILES: CN1C(=O)c2c(O)c(=O)c(C(=O)NCc3ccccc3F)cn2N(C)C12CCOC2 (single isomer, unassigned) [Compound 112]
- IC50 [2]: 231 nM
- IC50 [3]: 0.9 nM

SMILES: CN1C(=O)c2c(O)c(=O)c(C(=O)NCc3ccc(F)cc3)cn2N(C)C12CCOC2 (single isomer, unassigned) [Compound 113]
- IC50 [4]: 94 nM
- IC50 [1]: 1.5 nM

SMILES: CN1C(=O)c2c(O)c(=O)c(C(=O)NCc3ccc(F)cc3)cn2N(C)C12CCOC2 (single isomer, unassigned) [Compound 114]
- IC50 [2]: 87 nM
- IC50 [3]: 0.8 nM

SMILES: CN1C(=O)c2c(O)c(=O)c(C(=O)NCc3c(F)cccc3F)cn2N(C)C12CCOC2 (single isomer, unassigned) [Compound 115]
- IC50 [4]: 54 nM
- IC50 [1]: 1.2 nM

SMILES: CN1C(=O)c2c(O)c(=O)c(C(=O)NCc3c(F)cccc3F)cn2N(C)C12CCOC2 (single isomer, unassigned) [Compound 116]
- IC50 [2]: 42 nM
- IC50 [3]: 0.7 nM

SMILES: CN1C(=O)c2c(O)c(=O)c(C(=O)NCc3ccc(F)c(Cl)c3F)cn2N(C)C12CCOC2 (single isomer, unassigned) [Compound 117]
- IC50 [1]: 0.5 nM
- IC50 [2]: 246 nM

SMILES: CN1C(=O)c2c(O)c(=O)c(C(=O)NCc3ccc(F)c(Cl)c3F)cn2N(C)C12CCOC2 (single isomer, unassigned) [Compound 118]
- IC50 [2]: 101 nM

SMILES: CCN1C(=O)c2c(O)c(=O)c(C(=O)NCc3ccc(F)cc3F)cn2N(C)C12CCOC2 (single isomer, unassigned) [Compound 119]
- IC50 [5]: 11 nM
- IC50 [4]: 163 nM
- IC50 [1]: 1.2 nM

SMILES: CCN1C(=O)c2c(O)c(=O)c(C(=O)NCc3ccc(F)cc3F)cn2N(C)C12CCOC2 (single isomer, unassigned) [Compound 120]
- IC50 [2]: 266 nM
- IC50 [3]: 2.1 nM

SMILES: COCCN1C(=O)c2c(O)c(=O)c(C(=O)NCc3ccc(F)cc3F)cn2N(C)C12CCOC2 (single isomer, unassigned) [Compound 121]
- IC50 [5]: 39 nM
- IC50 [1]: 1.8 nM
- IC50 [2]: 575 nM

SMILES: COCCN1C(=O)c2c(O)c(=O)c(C(=O)NCc3ccc(F)cc3F)cn2N(C)C12CCOC2 (single isomer, unassigned) [Compound 122]
- IC50 [2]: 1990 nM
- IC50 [3]: 2.4 nM

SMILES: COCCCN1C(=O)c2c(O)c(=O)c(C(=O)NCc3ccc(F)cc3F)cn2N(C)C12CCOC2 (single isomer, unassigned) [Compound 123]
- IC50 [1]: 1.2 nM
- IC50 [6]: 9 nM
- IC50 [2]: 117 nM

SMILES: COCCCN1C(=O)c2c(O)c(=O)c(C(=O)NCc3ccc(F)cc3F)cn2N(C)C12CCOC2 (single isomer, unassigned) [Compound 124]
- IC50 [6]: 22 nM
- IC50 [2]: 309 nM
- IC50 [3]: 1.8 nM

SMILES: CCOCCN1C(=O)c2c(O)c(=O)c(C(=O)NCc3ccc(F)cc3F)cn2N(C)C12CCOC2 (single isomer, unassigned) [Compound 125]
- IC50 [4]: 257 nM
- IC50 [1]: 0.8 nM

SMILES: CCOCCN1C(=O)c2c(O)c(=O)c(C(=O)NCc3ccc(F)cc3F)cn2N(C)C12CCOC2 (single isomer, unassigned) [Compound 126]
- IC50 [2]: 455 nM
- IC50 [3]: 1.3 nM

SMILES: CN1C(=O)c2c(O)c(=O)c(C(=O)NCc3cccc(Cl)c3F)cn2N(C)C12COCC2(C)C (single isomer, unassigned) [Compound 127]
- IC50 [4]: 134 nM
- IC50 [1]: 1 nM

SMILES: CN1C(=O)c2c(O)c(=O)c(C(=O)NCc3cccc(Cl)c3F)cn2N(C)C12COCC2(C)C (single isomer, unassigned) [Compound 128]
- IC50 [2]: 131 nM
- IC50 [3]: 0.7 nM

SMILES: CN1C(=O)c2c(O)c(=O)c(C(=O)NCc3ccc(F)cc3F)cn2N(C)C12COCC2(C)C (single isomer, unassigned) [Compound 129]
- IC50 [2]: 73 nM
- IC50 [3]: 0.6 nM

SMILES: CN1C(=O)c2c(O)c(=O)c(C(=O)NCc3ccc(F)cc3F)cn2N(C)C12COCC2(C)C (single isomer, unassigned) [Compound 130]
- IC50 [2]: 257 nM
- IC50 [3]: 2.3 nM

SMILES: CC1OCCC12N(C)C(=O)c1c(O)c(=O)c(C(=O)NCc3ccc(F)cc3F)cn1N2C (single isomer, unassigned) [Compound 131]
- IC50 [1]: 0.8 nM
- IC50 [2]: 114 nM

SMILES: CC1OCCC12N(C)C(=O)c1c(O)c(=O)c(C(=O)NCc3ccc(F)cc3F)cn1N2C (single isomer, unassigned) [Compound 132]
- IC50 [2]: 77 nM

SMILES: CC1OCCC12N(C)C(=O)c1c(O)c(=O)c(C(=O)NCc3ccc(F)cc3F)cn1N2C (single isomer, unassigned) [Compound 133]
- IC50 [2]: 55 nM

SMILES: CC1OCCC12N(C)C(=O)c1c(O)c(=O)c(C(=O)NCc3ccc(F)cc3F)cn1N2C (single isomer, unassigned) [Compound 134]
- IC50 [2]: 65 nM
- IC50 [3]: 0.9 nM

SMILES: CC1OCCC12N(C)C(=O)c1c(O)c(=O)c(C(=O)NCc3cccc(Cl)c3F)cn1N2C (single isomer, unassigned) [Compound 135]
- IC50 [1]: 0.9 nM
- IC50 [2]: 486 nM

SMILES: CC1OCCC12N(C)C(=O)c1c(O)c(=O)c(C(=O)NCc3cccc(Cl)c3F)cn1N2C (single isomer, unassigned) [Compound 136]
- IC50 [2]: 83 nM

SMILES: CC1OCCC12N(C)C(=O)c1c(O)c(=O)c(C(=O)NCc3cccc(Cl)c3F)cn1N2C (single isomer, unassigned) [Compound 137]
- IC50 [2]: 64 nM
- IC50 [3]: 0.7 nM

SMILES: CC1OCCC12N(C)C(=O)c1c(O)c(=O)c(C(=O)NCc3cccc(Cl)c3F)cn1N2C (single isomer, unassigned) [Compound 138]
- IC50 [2]: 134 nM
- IC50 [3]: 0.6 nM

SMILES: CCOC(=O)N1CCC2(C1)N(CC)C(=O)c1c(O)c(=O)c(C(=O)NCc3ccc(F)cc3F)cn1N2C (single isomer, unassigned) [Compound 139]
- IC50 [1]: 1.5 nM
- IC50 [2]: 247 nM

SMILES: CCOC(=O)N1CCC2(C1)N(CC)C(=O)c1c(O)c(=O)c(C(=O)NCc3ccc(F)cc3F)cn1N2C (single isomer, unassigned) [Compound 140]
- IC50 [2]: 48 nM
- IC50 [3]: 1.7 nM

SMILES: CCN1n2cc(C(=O)NCc3ccc(F)cc3F)c(=O)c(O)c2C(=O)N(C)C12CCOC2 (single isomer, unassigned) [Compound 149]
- IC50 [1]: 0.7 nM
- IC50 [2]: 144 nM

SMILES: CCN1n2cc(C(=O)NCc3ccc(F)cc3F)c(=O)c(O)c2C(=O)N(C)C12CCOC2 (single isomer, unassigned) [Compound 150]
- IC50 [2]: 71 nM
- IC50 [3]: 0.6 nM

SMILES: CN1C(=O)c2c(O)c(=O)c(C(=O)NCc3ccc(F)cc3F)cn2N(CC2CC2)C12CCOC2 (single isomer, unassigned) [Compound 151]
- IC50 [4]: 240 nM
- IC50 [1]: 0.7 nM

SMILES: CN1C(=O)c2c(O)c(=O)c(C(=O)NCc3ccc(F)cc3F)cn2N(CC2CC2)C12CCOC2 (single isomer, unassigned) [Compound 152]
- IC50 [2]: 174 nM
- IC50 [3]: 0.7 nM

SMILES: COCN1n2cc(C(=O)NCc3ccc(F)cc3F)c(=O)c(O)c2C(=O)N(C)C12CCOC2 (single isomer, unassigned) [Compound 153]
- IC50 [1]: 1.3 nM
- IC50 [2]: 275 nM

SMILES: COCN1n2cc(C(=O)NCc3ccc(F)cc3F)c(=O)c(O)c2C(=O)N(C)C12CCOC2 (single isomer, unassigned) [Compound 154]
- IC50 [2]: 37 nM
- IC50 [3]: 0.7 nM

SMILES: COCCN1n2cc(C(=O)NCc3ccc(F)cc3F)c(=O)c(O)c2C(=O)N(C)C12CCOC2 (single isomer, unassigned) [Compound 155]
- IC50 [2]: 37 nM

SMILES: COCCN1n2cc(C(=O)NCc3ccc(F)cc3F)c(=O)c(O)c2C(=O)N(C)C12CCOC2 (single isomer, unassigned) [Compound 156]
- IC50 [2]: 106 nM
- IC50 [3]: 1.2 nM

SMILES: COCCCN1n2cc(C(=O)NCc3ccc(F)cc3F)c(=O)c(O)c2C(=O)N(C)C12CCOC2 (single isomer, unassigned) [Compound 157]
- IC50 [4]: 111 nM
- IC50 [3]: 2.5 nM

SMILES: COCCCN1n2cc(C(=O)NCc3ccc(F)cc3F)c(=O)c(O)c2C(=O)N(C)C12CCOC2 (single isomer, unassigned) [Compound 158]
- IC50 [2]: 168 nM
- IC50 [3]: 1 nM

SMILES: CCOP(=O)(CCN1n2cc(C(=O)NCc3ccc(F)cc3F)c(=O)c(O)c2C(=O)N(C)C12CCOC2)OCC (single isomer, unassigned) [Compound 159]
- IC50 [4]: 71 nM

SMILES: CCOP(=O)(CCN1n2cc(C(=O)NCc3ccc(F)cc3F)c(=O)c(O)c2C(=O)N(C)C12CCOC2)OCC (single isomer, unassigned) [Compound 160]
- IC50 [2]: 46 nM

SMILES: CN1C(=O)c2c(O)c(=O)c(C(=O)NCc3ccc(F)cc3F)cn2N(Cc2ccccc2)C12CCOC2 (single isomer, unassigned) [Compound 162]
- IC50 [2]: 72 nM
